The subject of the experiment is triglycerides in blood plasma. Nature of the experiment: In-vivo testing for regulation of triglycerides in blood plasma. Further details: species or system male mice B6 Lep ob/ob. The following applies: obese mice fed with high fat diet; 30 mg/kg/day, p.o., 14 days treatment. From the text:
This effect is probed in obese mice fed with high fat diet. In the following paragraphs the method of this study is described.
The study is done using six weeks old male mice B6 Lep ob/ob, obtained from Charles River (France). Mice are divided in 3 groups: I (control), II (vehicle), III (example 0).
The animals of the group I receive the standard diet (D-12450B, Research Diets, NJ, USA).
The animals of the groups II and III are fed with a High Fat Diet (D-12492, Research Diets, NJ, USA), in both cases for 7 weeks (References 1 and 2).
The animals of the groups III are fed with a High Fat Diet (D-12492, Research Diets, NJ, USA), in both cases for 7 weeks (References 1 and 2).
At the end of the feeding period of 7 weeks, the treatment period (14 days) is started: Group II mice receive the vehicle (10 ml/kg/day, po, of the aqueous solution of acacia gum, 5% W/V). Group III is administered with 30 mg/kg/day, p.o., of the inventive compound (R)-5-(4-chlorophenyl)-1-(2,4-dichlorophenyl)-4,5-dihydro-pyrazole-3-carboxylic acid according to Example 0. […] The three groups of mice have the same diet than in the previous period.
At the end of the 14 days period of treatment, the blood levels of triglicerides of the animals are determined.
The analysis of the whole blood samples is done using test strips "Lipid panel" and the photometric Analyzer Cardio-Check Test System, from PA Instruments Polymer […]

`O=C(O)C1=NN(c2ccc(Cl)cc2Cl)[C@@H](c2ccc(Cl)cc2)C1` [Example 0, (R)-5-(4-chlorophenyl)-1-(2,4-dichlorophenyl)-4,5-dihydro-pyrazole-3-carboxylic acid]: the “blood levels of triglicerides” value was “inhibitor of high blood levels of triglicerides”.
